Patent publication US20250283049A1, “AGENT FOR CULTURING ORGANOID IN ABSENCE OF EXTRACELLULAR MATRIX” (KEIO UNIVERSITY, priority 2022, published 2025)

B1: Oncostatin M: cytokine of a cytokine family that binds to gp130 (protein, UniProt P13725 26-221, looked up)
Oncostatin-M: AAIGSCSKEYRVLLGQLQKQTDLMQDTSRLLDPYIRIQGLDVPKLREHCRERPGAFPSEETLRGLGRRGFLQTLNATLGCVLHRLADLEQRLPKAQDLERSGLNIEDLEKLQMARPNILGLRNNIYCMAQLLDNSDTAEPTKAGRGASQPPTPTPASDAFQRKLEGCRFLHGYHRFMHSVGRVFSKWGESPNRSRR

Key:
Type in all cases: cell-based
[1] = test system: human large intestine-derived organoid; test: Culture of organoids in absence of Matrigel with LATS kinase inhibitor; cell number by ATP (CellTiter-Glo 3D); settings: both Lats-IN (10 μM) and MYF01-37 added
Experimental: (§1) In this experimental example, a human small intestine-derived organoid and human large intestine-derived organoid established in the presence of Matrigel (registered trademark) were cultured in the absence of Matrigel (registered trademark) and in the presence of a LATS kinase inhibitor (final concentration: 10 μM), and their dynamics were observed. The procedure was the same as in Experimental Example 1, except that each organoid was cultured in the absence of Matrigel (registered trademark).
The lower left panel of FIG. 3 is a photograph of a control (Ctrl) human large intestine-derived organoid cultured in the absence of Lats-IN, and the lower center panel of FIG. 3 is a photograph of a human large intestine-derived organoid cultured in the presence of Lats-IN. The scale bar is 100 μm. The lower right panel of FIG. 3 is a graph showing the results of measuring cell number in the human large intestine-derived organoids cultured in the presence of the control (Ctrl) and Lats-IN. The vertical axis of the graph represents luminescence intensity (relative value) indicating the amount of ATP present. […]
(§2) FIG. 8 presents graphs showing the results of measuring the proliferation of the human small intestine-derived and human large intestine-derived organoids in the absence of Lats-IN (Ctrl), in the presence of Lats-IN (Lats-IN), in the presence of Lats-IN and MYF01-37 (Lats-IN+MYF), and in the presence of MYF01-37 (MYF). The cell proliferation was measured by measuring ATP using a commercially available kit (product name “CellTiter-Glo 3D,” Promega Corporation). The vertical axis of the graph represents luminescence intensity (relative value) indicating the amount of ATP present. […]
(§3) FIG. 26 presents graphs showing the results of measuring cell number in each organoid after 6 days of culture by measuring ATP using a commercially available kit (product name “CellTiter-Glo 3D,” Promega Corporation). The vertical axis of the graph represents luminescence intensity (relative value) indicating the amount of ATP present.

[2] = test system: human small intestine-derived organoid; test: as above; settings: both Lats-IN (10 μM) and MYF01-37 added
Experimental: as §1
The upper left panel of FIG. 3 is a photograph of a control (Ctrl) human small intestine-derived organoid cultured in the absence of Lats-IN, and the upper center panel of FIG. 3 is a photograph of a human small intestine-derived organoid cultured in the presence of Lats-IN. The scale bar is 100 μm. […] The vertical axis of the graph represents luminescence intensity (relative value) indicating the amount of ATP present. […]
as §2, §3

[3] = test system: primary human liver cells (EpCAM-negative); test: Establishment of liver cell organoids in absence of Matrigel; settings: for establishment of human liver cell organoids: proliferation medium with both 20 μM TDI-011536 and 20 ng/ml Oncostatin M
Experimental: Frozen primary human liver cells were suspended in Advanced DMEM/F-12 medium and thawed. Two types of primary human liver cells, Line 1 and Line 2, were used.
Subsequently, each of the thawed primary human liver cells was stained with an APC-labeled mouse anti-human EpCAM antibody, and EpCAM-negative cells were collected using a cell sorter. The collected cells were then suspended in proliferation medium supplemented with 20 μM TDI-011536 and seeded into an ultra-low attachment 96-well plate at 3,000 to 4,000 cells/well. The cells were then cultured to obtain liver cell organoids. In addition, for comparison, cells were also prepared using proliferation medium supplemented with no TDI-011536 or no Oncostatin M.
The passaging of liver cell organoids in the absence of Matrigel (registered trademark) was performed as follows. First, calcium ions and magnesium ions were chelated using 1 mM EDTA/phosphate buffered saline (PBS). Subsequently, the liver cell organoids were supplemented with TrypLE Express (Thermo Fisher Scientific) and incubated at 37° C. for 5 minutes to dissociate them into single cells.
The collected cells were then suspended in proliferation medium supplemented with 20 μM TDI-011536 and seeded into an ultra-low attachment 96-well plate at 2,000 cells/well.
The scale bar is 500 μm. FIG. 24 presents graphs showing the results of measuring changes in cell proliferation over time. In FIG. 24, the vertical axes of the graphs represent cell proliferation (fold increase), and the horizontal axes indicate the number of days of culture. In FIGS. 23 and 24, “OSM” represents Oncostatin M, and “Lats IN” represents the LATS kinase inhibitor (TDI-011536).

[4] = test system: human liver cell organoids; test: Culturing liver cell organoids in absence of Matrigel; number of viable cells (CellTiter-Glo 3D); settings: for number of viable cells, higher than control group: day 6 after seeding
Experimental: Human liver cell organoids, established from primary human liver cells, were supplemented with TrypLE Express (Thermo Fisher Scientific) and incubated at 37° C. for 5 minutes to dissociate them into single cells.
The cells were then collected and suspended in proliferation medium separately supplemented with 2, 5, 10, 20, or 50 μM TDI-011536 (CAS No. 2687970-96-1), and […] seeded into an ultra-low attachment 96-well plate at 2,000 cells/well. The preferred seeding density is 2,000 to 4,000 cells/well. In addition, cells in proliferation medium supplemented with no TDI-011536 were prepared as a control.
The proliferation medium was a medium consisting of a basal medium (Advanced DMEM/F-12 medium, 10 mM HEPES, 2 mM GlutaMAX, 100 U penicillin, 100 μg/mL streptomycin) supplemented with 10% afamin-Wnt-3A conditioned medium, 2% R-spondin 1 conditioned medium, 2% Noggin conditioned medium, and 20 ng/ml Oncostatin M.
On day 6 after seeding, the number of viable cells in the human liver cell organoids was measured using a commercially available kit (product name “CellTiter-Glo 3D,” Promega Corporation).

| Molecule | cell proliferation (ATP luminescence) when TEAD inhibited [1] | cell proliferation (ATP luminescence) when TEAD inhibited [2] | duration for which established organoids could be cultured ([3]; 20 μM TDI-011536 and Oncostatin M) | establishment of human liver cell organoids [3] | number of viable cells, higher than control group ([4]; 20 μM) [fold] | number of viable cells, higher than control group ([4]; 50 μM) [fold] | number of viable cells (words, FIG. 22) ([4]; adding the LATS kinase inhibitor) |
| --- | --- | --- | --- | --- | --- | --- | --- |
| C=CC(=O)N1CCC(C)(Nc2cccc(C(F)(F)F)c2)C1 (centres unmarked) [MYF01-37] | inhibited | inhibited | – | – | – | – | – |
| O=C(N=c1scc(CO)n1Cc1ccccc1)c1c[nH]c2ncccc12 [TDI-011536] | – | – | at least two months | successfully established | 16 | 17 | increase in the number of viable cells was observed |
| B1 | – | – | – | successfully established | – | – | – |
